14 compounds from PubChem BioAssay (NCI) can be followed below.

Each structure is given as a SMILES string. Values joined by “and” are separate entries in the source; they are usually repeats but may differ in a detail not shown here. Equal entries are not always repeated.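 These data come from cells grown in 96-well plates and exposed to compound for 48 hours at five concentrations. GI50 is the concentration that inhibits growth by half. At the TGI there is no net growth.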 A value given as a limit tells only on which side of the number the result lay.

Test systems include COLO 205 colon; MOLT-4 leukemia; CCRF-CEM leukemia; PC-3 prostate; A549 NSCLC; HOP-92 NSCLC; SK-OV-3 ovarian; MALME-3M melanoma; UO-31 renal; HL-60(TB) leukemia.
Experiment in all cases: DTP human tumour cell line panel, 48 h

On to `Cc1c(C(=O)c2ccccc2)[n+](=O)c2cc(F)c(F)cc2n1[O-]`, for which the GI50 in the test with COLO 205 colon is 3.31 µM; in the test with MOLT-4 leukemia, 1.04 µM; with CCRF-CEM leukemia, 1.18 µM; in the test with PC-3 prostate, 3.37 µM; in the test on A549 NSCLC, 7.26 µM; in the test with HOP-92 NSCLC, 3.72 µM. Further, the GI50 in the test with SK-OV-3 ovarian was 3.7 µM; with MALME-3M melanoma it was 2.7 µM; in the test with UO-31 renal it was 2.04 µM. The TGI in the test with COLO 205 colon was found to be 11.5 µM; in the test on MOLT-4 leukemia it was 80.4 µM; in the test on CCRF-CEM leukemia, 2.89 µM; in the test with PC-3 prostate it was 14.1 µM; in the test on A549 NSCLC, 30.9 µM; in the test with HOP-92 NSCLC, 14.7 µM. For the same compound, the values for the TGI in the test with SK-OV-3 ovarian, with MALME-3M melanoma and in the test on UO-31 renal were 12.9 µM, 7.76 µM and 4.13 µM, respectively.
Consider `COc1cc(N2CCC(N)CC2)ccc1Nc1ncc(Cl)c(-c2c[nH]c3ccccc23)n1`, for which the GI50 was 0.0412 µM in the test with HL-60(TB) leukemia; 0.0248 µM in the test with COLO 205 colon; 1.4 µM with MOLT-4 leukemia; 2.17 µM in the test with CCRF-CEM leukemia; 1 µM with PC-3 prostate; 0.248 µM in the test with A549 NSCLC. For the same compound, the GI50 in the test with HOP-92 NSCLC was 0.035 µM; with SK-OV-3 ovarian, 0.68 µM; with UO-31 renal it was 0.339 µM. For the same compound, the TGI was found to be 2.75 µM with HL-60(TB) leukemia; 0.269 µM in the test with COLO 205 colon; 4.86 µM in the test with MOLT-4 leukemia; 7.15 µM with CCRF-CEM leukemia; 3.63 µM with PC-3 prostate; 1.65 µM in the test with A549 NSCLC. In addition, the TGI with HOP-92 NSCLC is 0.345 µM; with SK-OV-3 ovarian, 2.8 µM; with UO-31 renal it was 2.12 µM.
With `COC(=O)c1cccc(NC(=O)c2ccc(NC3=C(Cl)C(=O)N(Cc4ccccc4)C3=O)cc2)c1`, the GI50 is 16.8 µM with HL-60(TB) leukemia; 21.4 µM with COLO 205 colon; 12.5 µM with MOLT-4 leukemia; 15.1 µM with PC-3 prostate; 17.5 µM in the test with A549 NSCLC; 11 µM in the test on HOP-92 NSCLC. Further, the figures for the GI50 in the test on SK-OV-3 ovarian and with UO-31 renal were 84 µM and 1.7 µM, respectively. Besides, the total growth inhibition concentration (TGI) in the test with HL-60(TB) leukemia is 38.8 µM; in the test on COLO 205 colon, more than 100 µM; in the test on MOLT-4 leukemia, 56.5 µM; in the test on PC-3 prostate, 28.3 µM; in the test with A549 NSCLC, 48.7 µM; in the test on HOP-92 NSCLC it was 23.4 µM. For the same compound, the TGI with SK-OV-3 ovarian is more than 100 µM; with UO-31 renal it was 3.31 µM.
Regarding `O=C(NN1C(=O)CSC1c1c(Cl)cccc1Cl)C(O)c1ccccc1` (stereo unspecified), the GI50 is 34.1 µM with COLO 205 colon; 25 µM with MOLT-4 leukemia; 43.7 µM with CCRF-CEM leukemia; 29.6 µM in the test with PC-3 prostate; 21.2 µM with A549 NSCLC; 20.9 µM in the test with HOP-92 NSCLC. The GI50 in the test on SK-OV-3 ovarian was more than 100 µM; with MALME-3M melanoma, 31.7 µM; in the test on UO-31 renal, 29.3 µM. Further, the TGI in the test on COLO 205 colon is more than 100 µM; in the test on MOLT-4 leukemia, 80.7 µM; in the test on CCRF-CEM leukemia, more than 100 µM; with PC-3 prostate, more than 100 µM; with A549 NSCLC, 81.6 µM; with HOP-92 NSCLC, 98.9 µM. Further, the TGI in the test on SK-OV-3 ovarian, with MALME-3M melanoma and in the test on UO-31 renal was more than 100 µM throughout.
Consider `CC(C)C1=CC2=C(C(=O)C1=O)C13CCCC(C)(C)C1CC2OC3=O` (stereo unspecified), for which the TGI in the test on HL-60(TB) leukemia was 36.3 µM; in the test with COLO 205 colon, 34.8 µM; in the test with MOLT-4 leukemia it was 32.7 µM; in the test with CCRF-CEM leukemia, 33.1 µM; with PC-3 prostate, 63.2 µM; in the test with A549 NSCLC, more than 100 µM. The results for the TGI in the test on HOP-92 NSCLC, in the test with SK-OV-3 ovarian and with UO-31 renal were 37.3 µM, more than 100 µM and 40.8 µM, respectively.
Regarding `COC1C(=O)CCC2(CO2)C1(O)C1(C)OC1CC=C(C)C` (stereo unspecified), the total growth inhibition concentration (TGI) is more than 100 µM in the test with COLO 205 colon; 83.2 µM in the test on MOLT-4 leukemia; more than 100 µM in the test on PC-3 prostate; more than 100 µM in the test on A549 NSCLC; more than 100 µM with HOP-92 NSCLC; more than 100 µM in the test with SK-OV-3 ovarian. For the same compound, the TGI in the test with UO-31 renal is more than 100 µM.
For the compound `CCCCCCCCCC[C@H](O)[C@H]1CC[C@@H]([C@@H](O)CC[C@H](O)[C@@H]2CCC(CCCCCCC[C@@H](O)CC3=C[C@H](C)OC3=O)O2)O1` (stereo partly specified), the TGI with HL-60(TB) leukemia is 4.95 µM; with COLO 205 colon, 4.38 µM and 6 µM; in the test with CCRF-CEM leukemia, 12.3 µM; with PC-3 prostate it was 3.44 µM and 17.2 µM; in the test with A549 NSCLC, 18.5 µM; in the test with HOP-92 NSCLC, 4.34 µM and 16 µM. The TGI in the test on MALME-3M melanoma was 12.3 µM; with UO-31 renal it was 2.13 µM and 10.9 µM. The GI50 is 2.08 µM in the test on CCRF-CEM leukemia; 4.66 µM in the test on PC-3 prostate; 2.89 µM in the test on A549 NSCLC; 1.99 µM in the test on HOP-92 NSCLC; 2.59 µM with UO-31 renal.
`CN(C)c1ccc(/C=c2/c3cc(O)ccc3n3c2cc(-c2ccccc2)[n+]3C)cc1`: the TGI is 1.05 µM in the test on HL-60(TB) leukemia; 4.1 µM in the test on CCRF-CEM leukemia; 2.25 µM with PC-3 prostate; more than 100 µM in the test with A549 NSCLC; 3.9 µM in the test with HOP-92 NSCLC; more than 100 µM in the test with SK-OV-3 ovarian. Further, the total growth inhibition concentration (TGI) in the test on UO-31 renal is 31.7 µM. Also, the GI50 in the test with SK-OV-3 ovarian was 6.13 µM; with UO-31 renal, 4.45 µM.
With `CCc1ncc(CO)n1Cc1cccc2ccccc12`, the TGI in the test with COLO 205 colon, in the test on PC-3 prostate, in the test on A549 NSCLC, in the test on HOP-92 NSCLC, with SK-OV-3 ovarian and in the test on MALME-3M melanoma was more than 100 µM in each case. This compound also displayed a total growth inhibition concentration (TGI) in the test with UO-31 renal of more than 100 µM.
As for `COc1ccc(/C=C/C(=O)/C=C(O)/C=C/c2ccc(OC)c(OC)c2)cc1OC`, the GI50 in the test on COLO 205 colon is 34.4 µM; in the test with MOLT-4 leukemia, 5.38 µM; with CCRF-CEM leukemia, 3.66 µM; in the test on PC-3 prostate, 2.88 µM; with A549 NSCLC it was 37.9 µM; with HOP-92 NSCLC it was 14.1 µM. Moreover, the GI50 is more than 100 µM in the test on SK-OV-3 ovarian, 3.82 µM in the test with MALME-3M melanoma and 5.27 µM in the test on UO-31 renal. Besides, the TGI is more than 100 µM with COLO 205 colon; more than 100 µM in the test on MOLT-4 leukemia; more than 100 µM with CCRF-CEM leukemia; more than 100 µM in the test with PC-3 prostate; more than 100 µM in the test with A549 NSCLC; 98.4 µM in the test with HOP-92 NSCLC. Further, the TGI in the test with SK-OV-3 ovarian, with MALME-3M melanoma and in the test on UO-31 renal was more than 100 µM throughout.
With `COC(=O)Nc1nc2ccc(C(=O)c3ccc(F)cc3)cc2[nH]1`, the GI50 was 0.107 µM with HL-60(TB) leukemia; 0.152 µM in the test with COLO 205 colon; 0.226 µM in the test on PC-3 prostate; 0.468 µM in the test with A549 NSCLC; 4.81 µM with HOP-92 NSCLC; 0.51 µM with SK-OV-3 ovarian. In addition, the GI50 in the test with MALME-3M melanoma was 0.193 µM; in the test on UO-31 renal, 2.29 µM. The TGI in the test with HL-60(TB) leukemia was 0.608 µM; in the test on COLO 205 colon, 0.554 µM; in the test with PC-3 prostate it was more than 100 µM; in the test on A549 NSCLC, more than 100 µM; with HOP-92 NSCLC it was 50.3 µM; in the test on SK-OV-3 ovarian it was 11.2 µM. Further, the TGI was 26.9 µM with MALME-3M melanoma and more than 100 µM with UO-31 renal.
For `COc1cc(C(=O)NN=C2c3ccccc3-c3ccccc32)cc(OC)c1OC`, the GI50 in the test on HL-60(TB) leukemia was 2.21 µM; with COLO 205 colon it was 3.49 µM; with MOLT-4 leukemia, 5.12 µM; in the test with CCRF-CEM leukemia, 3.53 µM; with PC-3 prostate, 2.72 µM; with A549 NSCLC, 3.26 µM. The GI50 with SK-OV-3 ovarian was 4.12 µM; with MALME-3M melanoma, 2.45 µM; in the test on UO-31 renal, 4.02 µM. The TGI with HL-60(TB) leukemia is 7.12 µM; in the test on COLO 205 colon, 32.1 µM; in the test with MOLT-4 leukemia, more than 100 µM; with CCRF-CEM leukemia it was more than 100 µM; in the test on PC-3 prostate, 25 µM; in the test on A549 NSCLC, more than 100 µM. The values for the TGI in the test on SK-OV-3 ovarian, with MALME-3M melanoma and in the test with UO-31 renal were more than 100 µM, 16.7 µM and 75.3 µM, respectively.
For `Fc1ccc(Nc2nc3nonc3nc2Nc2ccc(I)cc2)cc1`, the GI50 in the test with COLO 205 colon was 0.208 µM; with MOLT-4 leukemia it was 0.219 µM; with CCRF-CEM leukemia, 0.22 µM; in the test with PC-3 prostate, 0.181 µM; with A549 NSCLC, 0.313 µM; in the test with HOP-92 NSCLC, 0.04 µM. In addition, the GI50 in the test with SK-OV-3 ovarian was 0.269 µM; in the test with MALME-3M melanoma it was 0.0939 µM; in the test with UO-31 renal, 0.156 µM. For the same compound, the TGI in the test with COLO 205 colon was found to be 0.55 µM; with MOLT-4 leukemia it was 0.75 µM; in the test on CCRF-CEM leukemia it was 4.47 µM; in the test on PC-3 prostate it was 10.7 µM; in the test on A549 NSCLC, 11.2 µM; in the test with HOP-92 NSCLC it was 0.326 µM. The values for the concentration for total growth inhibition (TGI) with SK-OV-3 ovarian, with MALME-3M melanoma and with UO-31 renal were 0.962 µM, 0.511 µM and 0.858 µM, respectively.
As for `COC(=O)c1c2c(c(C)[n+]([O-])c1C)C(=O)C(NCc1ccc(O)cc1)=CC2=O`, the GI50 was 2.46 µM in the test with HL-60(TB) leukemia; 0.579 µM with COLO 205 colon; 1.6 µM in the test with CCRF-CEM leukemia; 2 µM in the test on PC-3 prostate; 1.93 µM in the test on A549 NSCLC; 2.52 µM in the test on HOP-92 NSCLC. Besides, the GI50 with MALME-3M melanoma is 0.256 µM; with UO-31 renal, 1.53 µM. The total growth inhibition concentration (TGI) in the test with HL-60(TB) leukemia was determined as 5.69 µM; with COLO 205 colon, 2.19 µM; in the test with CCRF-CEM leukemia, 4.35 µM; in the test on PC-3 prostate it was 6.55 µM; with A549 NSCLC, 4.6 µM; in the test with HOP-92 NSCLC it was 5.12 µM. Besides, the values for the TGI with MALME-3M melanoma and in the test with UO-31 renal were 0.93 µM and 3.06 µM, respectively.

The GI50 is the concentration that inhibits growth by half. As a reminder, the TGI is the concentration at which net growth stops. Read a low TGI as greater sensitivity of the cells.
